Assay results taken from paper PMC2770570 (BMC Cancer, 2009).
Entries after “also recorded” stand apart in the source; their conditions may differ. Counter-ions that a name gives are not always drawn.

Assays:
KAT-18 cells [1] = test: Growth of KAT-18 cells transfected with OGFr siRNA or scrambled siRNA; format: cell-based, human
Description: The OGFr-targeted siRNAs (antisense:5'-[…]-3'; sense: 5'-[…]-3') were designed and obtained as ready-annealed, purified duplex probes from Ambion (Austin, TX). For transfection, 5 × 10^4 KAT-18 cells per well were seeded in 6-well plates containing 1 ml of serum-containing media without antibiotics. In each well, 20 nM OGFr-siRNA or control siRNA solutions in serum-free media were added. […] At 72 h cells were collected for computing growth. Two independent experiments were conducted. The scrambled siRNAs were purchased from Ambion.

KAT-18 cells [2] = test: DNA synthesis (BrdU incorporation) in KAT-18 cells; format: cell-based, human; settings: 10^-6 M, 72 h; 30 μM BrdU 3 h prior to fixing (Fig. 5)
Description: To examine DNA synthesis, KAT-18 cells were seeded onto 22 mm diameter coverglasses placed in 6-well plates (3 × 10^3 cells/coverglass), and treated with compounds for 72 h; media and drugs were replaced daily. Three h prior to fixing cells, 30 μM BrdU (Sigma Chemicals, Indianapolis, IN) was added to cultures. Cells were rinsed, fixed in 10% neutral buffered formalin for 10 min, and stained with antibodies to BrdU (anti-BrdU-BOD, Roche/Invitrogen). At least 1000 cells/treatment using at least 2 coverglasses/treatment were counted, and the number of positive cells recorded. Labeling indexes were calculated as the number of positive stained cells divided by total cells.

KAT-18 cells [3] = test: Apoptosis (TUNEL) in KAT-18 cells; format: cell-based, human; settings: 72 h, data not shown
Description: Cells were harvested after 72 h of drug treatment, and TUNEL assays conducted according to manufacturer's recommendations.

KAT-18 cells [4] = test: Necrosis (trypan blue) in KAT-18 cells; format: cell-based, human; settings: data not shown
Description: Necrosis was recorded as the number of positive trypan blue cells in any cell growth assay.

KTC-1 cells = test: Cell proliferation assay (cell number), KTC-1 papillary thyroid cancer cells; format: cell-based, human; settings: 10^-6 M, 72 h (Fig. 6B)
Description: (§1) The ATC cell line, KAT-18, was generously provided by Dr. K.B. Ain, The University of Kentucky, Lexington, KY) and the FTC cell line, WRO 82-1, was established by Dr. G. Juillard (University of California at Los Angeles, CA). The poorly differentiated papillary thyroid carcinoma cell line, KTC-1 [31], was a generous gift of Dr. James A. Fagin (Memorial Sloan Kettering Cancer Center, New York, NY). The KAT-18 cells were grown in phenol-red free RPMI 1640 media (GIBCO/Invitrogen, Carlsbad, CA), and the WRO 82-1 and KTC-1 cells were grown in standard RPMI 1640 media supplemented with 1% non-essential amino acids. All media were supplemented with 10% fetal calf serum, 2 mM L-glutamine, 1.2% sodium bicarbonate, and antibiotics (5,000 Units/ml penicillin, 5 mg/ml streptomycin, 10 mg/ml neomycin). The cell cultures were maintained in a humidified atmosphere of 5% CO2 at 37°C. […]
(§2) Cells were seeded at equivalent amounts into 6- or 24-well plates (Falcon) and counted 24 h later (time 0) to determine plating efficiency. […] Cells were harvested by trypsinization with 0.25% trypsin/0.53 mM EDTA, centrifuged, and counted with a hemacytometer. Cell viability was determined by trypan blue staining. At least two aliquots per well, and 2-4 wells/treatment, were counted for each experiment. […]

WRO 82-1 cells = test: Cell proliferation assay (cell number), WRO 82-1 follicular thyroid cancer cells; format: cell-based, human; settings: 10^-6 M, 72 h (Fig. 7B)
Description: as §1, §2

KAT-18 cells [5] = test: Cell proliferation assay (cell number), KAT-18 anaplastic thyroid cancer cells; format: cell-based, human
Description: The ATC cell line, KAT-18, was generously provided by Dr. K.B. Ain, The University of Kentucky, Lexington, KY) and the FTC cell line, WRO 82-1, was established by Dr. G. Juillard (University of California at Los Angeles, CA). The poorly differentiated papillary thyroid carcinoma cell line, KTC-1 [31], was a generous gift of Dr. James A. Fagin (Memorial Sloan Kettering Cancer Center, New York, NY). […] The cell cultures were maintained in a humidified atmosphere of 5% CO2 at 37°C. All cell lines were free of Mycoplasma and confirmed by single nucleotide polymorphism array analysis to be unique follicular cell-derived thyroid cancer cell lines.
Media and compounds were replaced daily. […] Cell viability was determined by trypan blue staining. At least two aliquots per well, and 2-4 wells/treatment, were counted for each experiment. Two to five experiments were conducted for each measure performed.

OGFr = target: T1, OGFr (Homo sapiens, UniProt Q9NZT2); test: receptor binding assay
T1 chain: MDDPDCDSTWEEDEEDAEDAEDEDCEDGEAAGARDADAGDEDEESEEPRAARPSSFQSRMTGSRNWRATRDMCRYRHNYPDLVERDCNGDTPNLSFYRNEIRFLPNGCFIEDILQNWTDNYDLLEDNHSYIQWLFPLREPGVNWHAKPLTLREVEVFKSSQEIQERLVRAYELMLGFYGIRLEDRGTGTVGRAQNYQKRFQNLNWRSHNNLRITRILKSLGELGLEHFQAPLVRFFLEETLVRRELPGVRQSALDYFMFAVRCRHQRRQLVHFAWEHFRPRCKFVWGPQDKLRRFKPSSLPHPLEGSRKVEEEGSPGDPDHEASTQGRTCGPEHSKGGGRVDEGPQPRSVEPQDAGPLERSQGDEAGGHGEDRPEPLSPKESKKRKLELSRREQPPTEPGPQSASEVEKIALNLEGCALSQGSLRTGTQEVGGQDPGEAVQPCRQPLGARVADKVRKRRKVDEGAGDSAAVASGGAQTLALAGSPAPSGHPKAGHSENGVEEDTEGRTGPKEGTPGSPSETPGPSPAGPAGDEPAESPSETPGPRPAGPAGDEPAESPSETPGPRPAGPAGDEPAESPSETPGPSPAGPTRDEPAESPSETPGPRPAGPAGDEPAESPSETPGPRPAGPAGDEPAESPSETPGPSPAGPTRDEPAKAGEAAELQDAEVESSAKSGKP

[6] = 10^-6 M NTX, cultures receiving OGFr siRNA (Fig. 4C)
[7] = 10^-6 M, 72 h, opioid specificity experiment (Fig. 3A)
[8] = 10^-6 M OGF, cells transfected with OGFr siRNA (Fig. 4C)

O=C1CC[C@@]2(O)[C@H]3Cc4ccc(O)c5c4[C@@]2(CCN3CC2CC2)[C@H]1O5 [NTX, naltrexone] was tested, and the “cell number vs OGFr siRNA plus vehicle” value (KAT-18 cells [1]; [6]) was “did not differ from cells receiving OGFr siRNA plus vehicle”, the “increase in cell number vs wildtype cells” value (KAT-18 cells [1]; [6]) was 70% and the “increase in cell number vs wildtype cells receiving vehicle” value (KAT-18 cells [1]; 10^-6 M NTX, untreated and scrambled siRNA cultures (Fig. 4C)) was 32%. The “increase in DNA synthesis (BrdU) vs control” value (KAT-18 cells [2]) was 25%, the “apoptosis relative to positive control samples” value (KAT-18 cells [3]) was “negligible” and the “number of apoptotic cells vs control” value (KAT-18 cells [3]) was “No differences in the number of apoptotic or necrotic cells”. The necrosis (KAT-18 cells [4]) was “negligible”, the “number of necrotic cells vs control” value (KAT-18 cells [4]) was “No differences in the number of apoptotic or necrotic cells” and the “increase in cell number from control” value (KTC-1 cells) was 30%. The “increase in cell number from control” value (WRO 82-1 cells) was 30%.

In the case of CN1CC[C@]23c4c5ccc(O)c4O[C@H]2[C@@H](O)C=C[C@H]3[C@H]1C5 [morphine, morphine sulfate], the “effect on cell proliferation vs control” value (KAT-18 cells [5]; [7]) is reported as “Only OGF altered cell proliferation significantly”.

In the case of C=CCN1CC[C@]23c4c5ccc(O)c4O[C@H]2C(=O)CC[C@@]3(O)[C@H]1C5 [naloxone], the “effect of naloxone on the OGF-induced depression in cell acquisition” value (KAT-18 cells [5]; KAT-18 cells) is reported as “blocked the depression in cell acquisition” and the “change in cell number vs control” value (KAT-18 cells [5]; naloxone 10^-6 M with or without OGF 10^-6 M, 72 h (Fig. 2C)) is reported as “no change in cell number; also recorded: did not have any influence on cell replication”.

In the case of “[D-Ala^2, MePhe^4, Glycol^5]-enkephalin [DAMGO]”, the “effect on cell proliferation vs control” value (KAT-18 cells [5]; [7]) is reported as “Only OGF altered cell proliferation significantly”.

In the case of [D-Pen^2,5]-enkephalin [DPDPE], the “effect on cell proliferation vs control” value (KAT-18 cells [5]; [7]) is reported as “Only OGF altered cell proliferation significantly”.

With [Met^5]-enkephalin [OGF] the “reduction in cell number from control” value (KAT-18 cells [5]; 10^-4 M, 72 h, dose-response (Fig. 2A)) was 38%, the “reduction in cell number from control” value (KAT-18 cells [5]; 10^-5 M, 72 h, dose-response (Fig. 2A)) was 13% and the “reduction in cell number from control” value (KAT-18 cells [5]; 10^-6 M continuously, at 96 h (Fig. 2D)) was 16%. For the same molecule, the “reduction in cell number from control” value (KAT-18 cells [5]; 10^-6 M continuously, at 120 h (Fig. 2D)) was 28%, the “reduction in cell number from control” value (KAT-18 cells [5]; 10^-6 M for 72 h, then media without OGF, at 96 h (Fig. 2D)) was 6% and the “reduction in cell number from control” value (KAT-18 cells [5]; 10^-6 M for 72 h, then media without OGF, at 120 h (Fig. 2D)) was 8%. The “reduction in cell number from control” value (KAT-18 cells [5]; 10^-6 M, 72 h, dose-response (Fig. 2A)) was 14%, the “reduction in cell number from control” value (KAT-18 cells [5]; 10^-6 M, 72 h, naloxone experiment (Fig. 2C)) was 20% and the “decrease in cell number from control” value (KAT-18 cells [5]; [7]) was 33%. For the same molecule, the “reduction in cell number from control” value (KAT-18 cells [5]; 10^-6 M, 72 h, reversibility study (Fig. 2D)) was 22%, the “effect on cell number vs control” value (KAT-18 cells [5]; 10^-7 M, 72 h, dose-response (Fig. 2A)) was “no significant effect on cell number” and the “duration of growth repression in presence of drug” value (KAT-18 cells [5]; KAT-18 cells) was “up to 120 h”. For the same molecule, the “time to observed growth repression after initiating drug exposure” value (KAT-18 cells [5]; KAT-18 cells) was no more than 24 h, the “maximum reduction in cell number ("by as much as")” value (KAT-18 cells [5]; KAT-18 cells, abstract) was no more than 38% and the “cell number, OGF vs sterile water” value (KAT-18 cells [1]; [8]) was “did not differ in cell number from each other”. The “effect on cell number” value (KAT-18 cells [1]; [8]) was “no effect”, the “reduction in cell number” value (KAT-18 cells [1]; 10^-6 M OGF, untransfected cultures and those transfected with scrambled siRNAs (Fig. 4C)) was 30% and the “decrease in proportion of BrdU labeled cells vs control” value (KAT-18 cells [2]) was 28%. The “number of apoptotic cells vs control” value (KAT-18 cells [3]) was “No differences in the number of apoptotic or necrotic cells”, the necrosis (KAT-18 cells [4]) was “negligible” and the “number of necrotic cells vs control” value (KAT-18 cells [4]) was “No differences in the number of apoptotic or necrotic cells”. The “reduction in cell number from control” value (KTC-1 cells) was 31% and the “reduction in cell number from control” value (WRO 82-1 cells) was 17%.

In the case of “dynorphin A1-8 (YGGFLRRI; Dynorphin A(1-8); UniProt P01213 207-214, looked up)”, the “effect on cell proliferation vs control” value (KAT-18 cells [5]; [7]) is reported as “Only OGF altered cell proliferation significantly”.

With endomorphin 1 the “effect on cell proliferation vs control” value (KAT-18 cells [5]; [7]) was “Only OGF altered cell proliferation significantly”.

For endomorphin 2, the “effect on cell proliferation vs control” value (KAT-18 cells [5]; [7]) was “Only OGF altered cell proliferation significantly”.

With “β-endorphin (YGGFMTSEKSQTPLVTLFKNAIIKNAYKKGE; Beta-endorphin; UniProt P01189 237-267, looked up)” the “effect on cell proliferation vs control” value (KAT-18 cells [5]; [7]) was “Only OGF altered cell proliferation significantly”.

YGGFM [opioid growth factor (OGF)] was tested, and the Kd (OGFr) was 3.5 nM.
